Structure (SMILES) | melting point
O=C(Nc1ccccn1)Nc1csc(-c2ccccn2)n1 [Example 5, N-[2-(2-Pyridinyl)-4-thiazolyl]-N′-2-pyridinylurea] | 233 to 235 °C
CN1CCN(c2cccc(NC(=O)Nc3csc(-c4ccncc4)n3)n2)CC1 [Example 31, N-[2-(4-Pyridinyl)-4-thiazolyl]-N′-2-[6-(1-methyl-4-piperazinyl)pyridinyl]urea] | 251 to 253 °C
O=C(Nc1cccc(NCCCN2CCOCC2)n1)Nc1csc(-c2ccncc2)n1 [Example 33] | 215 to 217 °C
NC(=O)c1ccc(NC(=O)Nc2csc(-c3ccncc3)n2)nc1 [Example 34, [[(2-(4-Pyridinyl)-4-thiazolylamino)carbonyl]amino]-2-pyridinyl-5-carboxamide] | 255 to 257 °C
CC(C)(C)c1cc(NC(=O)Nc2csc(-c3cccnc3)n2)no1 [Example 37, N-[2-(3-Pyridinyl)-4-thiazolyl]-N′-[5-(1,1-dimethylethyl)-3-isoxazolyl]urea] | 230 to 232 °C
Cc1ccc(NC(=O)Nc2csc(-c3ccccn3)n2)nc1 [Example 38, N-[2-(2-Pyridinyl)-4-thiazolyl]-N′-2-(5-methylpyridinyl)urea] | 228 to 230 °C
Cc1cc(C)nc(NC(=O)Nc2csc(-c3ccccn3)n2)c1 [Example 40, N-[2-(2-Pyridinyl)-4-thiazolyl]-N′-2-(4,6-dimethylpyridinyl)urea] | 232 to 234 °C
Cc1ccc2nc(NC(=O)Nc3csc(-c4ccccn4)n3)sc2c1 [Example 41, N-[2-(2-Pyridinyl)-4-thiazolyl]-N′-2-(6-methylbenzthiazolyl)urea] | 263 to 265 °C
Cc1ccnc(NC(=O)Nc2csc(-c3ccccn3)n2)c1 [Example 42, N-[2-(2-Pyridinyl)-4-thiazolyl]-N′-2-(4-methylpyridinyl)urea] | 217 to 219 °C
CCc1cccc(NC(=O)Nc2csc(-c3ccccn3)n2)n1 [Example 44, N-[2-(2-Pyridinyl)-4-thiazolyl]-N′-2-(6-ethylpyridinyl)urea] | 213 to 215 °C
COc1cccc(-c2nc(NC(=O)Nc3ccccn3)cs2)c1 [Example 48, N-[2-(3-Methoxyphenyl)-4-thiazolyl]-N′-2-pyridinylurea] | 201 to 203 °C
CCc1ccnc(NC(=O)Nc2csc(-c3ccccn3)n2)c1 [Example 50, N-[2-(2-Pyridinyl)-4-thiazolyl]-N′-2-(4-ethylpyridinyl)urea] | 196 to 198 °C

Second part, the compound after the results:

melting point | Structure (SMILES)
204 to 206 °C | CCCc1cccc(NC(=O)Nc2csc(-c3ccnc(CC)c3)n2)n1 [Example 14, N-[2-(2-Ethyl-4-pyridinyl)-4-thiazolyl]-N′-2-(6-propylpyridinyl)urea]
210 to 212 °C | CN(C)CCNc1cccc(NC(=O)Nc2csc(-c3ccncc3)n2)n1 [Example 35, N-[2-(4-Pyridinyl)-4-thiazolyl]-N′-2-[6-(N″,N″-aminoethylamino)pyridinyl]urea]
223 to 225 °C | CCCc1cccc(NC(=O)Nc2csc(-c3ccc(OC)cc3)n2)n1 [Example 45, N-[2-(4-Methoxyphenyl)-4-thiazolyl]-N′-2-(6-propylpyridinyl)urea]
227 to 229 °C | CCCc1cccc(NC(=O)Nc2csc(-c3ccc(O)cc3)n2)n1 [Example 46, N-[2-(4-Hydroxyphenyl)-4-thiazolyl]-N′-2-(6-propylpyridinyl)urea]
192 to 194 °C | CCCc1cccc(NC(=O)Nc2csc(-c3cccc(OC)c3)n2)n1 [Example 47, N-[2-(3-Methoxyphenyl)-4-thiazolyl]-N′-2-(6-propylpyridinyl)urea]
210 to 212 °C | CCCc1cccc(NC(=O)Nc2csc(-c3ccccn3)n2)n1 [Example 51, N-[2-(2-Pyridinyl)-4-thiazolyl]-N′-2-(6-propylpyridinyl)urea]
195 to 198 °C | CCCc1cccc(NC(=O)Nc2cccc(-c3ccncc3)c2)n1 [Example 54, N-[3-(4-Pyridinyl)phenyl]-N′-2-(6-propylpyridinyl)urea]
